This passage reports IC50 results from publication PMC8584349 (International Journal of Molecular Sciences, 2021).

Common to all, as to settings: 12 h
The test system of assay [1] is SARS-CoV-2 P.1 (Gamma) PsV.
Assay [2] relates to SARS-CoV-2 B.1.351 (Beta) PsV.
The subject of assay [3] is SARS-CoV-2 B.1.617.2 (Delta) PsV.
Assay [4] has as its system SARS-CoV-2 B.1.1.7 (Alpha) PsV.

For the compound `CC[C@H](C)[C@H](NC(=O)[C@H](C)NC(=O)[C@H](CCC(=O)O)NC(=O)[C@H](CCC(=O)O)NC(=O)[C@H](CC(C)C)NC(=O)[C@H](CCCCN)NC(=O)[C@H](CCCCN)NC(=O)[C@H](CCSC)NC(=O)[C@H](CCC(=O)O)NC(=O)[C@H](Cc1ccc(O)cc1)NC(=O)[C@H](CCC(=O)O)NC(=O)[C@H](CC(C)C)NC(=O)[C@H](CC(=O)O)NC(=O)[C@H](CC(C)C)NC(=O)[C@H](Cc1ccccc1)NC(=O)[C@@H](NC(=O)[C@@H](NC(=O)[C@H](CC(N)=O)NC(=O)[C@@H](NC(=O)[C@H](CCC(N)=O)NC(=O)[C@H](CC(=O)O)NC(=O)[C@H](CC(C)C)NC(=O)[C@@H](N)CO)[C@@H](C)CC)C(C)C)[C@@H](C)O)C(=O)N[C@@H](CCCCN)C(=O)N[C@@H](CCCCN)C(=O)N[C@@H](CC(C)C)C(=O)N[C@@H](CCC(=O)O)C(=O)N[C@@H](CCC(=O)O)C(=O)N[C@@H](CO)C(=O)N[C@@H](Cc1ccc(O)cc1)C(=O)N[C@H](C(=O)N[C@@H](CC(=O)O)C(=O)N[C@@H](CC(C)C)C(=O)N[C@@H](CCCCN)C(=O)N[C@@H](CCC(=O)O)C(=O)N[C@@H](CC(C)C)C(=O)O)[C@@H](C)CC` [EK1], the IC50 in assay [1] was 1320 nM; in assay [2], 2290 nM; in assay [3], 480 nM; in assay [4], 4610 nM.

The term IC50 denotes the concentration that gives 50% inhibition. High values mean weaker potency, low ones greater potency.
